This note sets out measurements from US20260274814A1, “THIENYL COMPOUNDS FOR THE TREATMENT OF A CENTRAL NERVOUS SYSTEM DISEASE OR DISORDER” (Coreterra Therapeutics, Inc., priority 2023, published 2026).

Structures are written as SMILES. Structures can show the parent of a compound that is named as a salt.

The test system of the test is mice. The experiment in a line: Neuropharmacological Assay (SmartCube): automated behavioral signature of compound-treated mice compared with a database of reference drug classes. As to conditions: for minimal effective dose: Mus musculus, ip, minimal effective dose: dose having 45% or more total activity in SmartCube, i.p., if only one dose tested, that dose is shown, read-out: MED; for AD / AG / AN / AP / AX / CE / HL / MS / PS / SH / UK: SmartCube class probability, 3.0 mg/kg i.p., 15 min before test. The test is classed as in vivo. A digest of the protocol:
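Compounds in N-methyl-2-pyrrolidone/polyethylene glycol/propylene glycol were given i.p. 15 min before testing, at 3 doses; values shown are for 3.0 mg/kg. Video-captured behaviour was matched by algorithm against reference drug classes, giving a probability per class. MED: lowest dose reaching ≥45% total activity.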

As for `CNC1COc2cc(C)sc2C1` (centres unmarked) [Compound 181, N, 2-dimethyl-6,7-dihydro-5H-thieno[3,2-b]pyran-6-amine hydrochloride], the minimal effective dose is more than 3 mg/kg, the AD entry is reported as “ND (^ <4%)”, the AG entry is “ND (^ <4%)” and the AN result is recorded as “+ (≥4%)”. Moreover, the AP entry is given as “+ (≥4%)”, the AX entry is reported as “ND (^ <4%)”, the CE entry is “ND (^ <4%)” and the HL result is reported as “ND (^ <4%)”. Further, the MS entry is “ND (^ <4%)”, the PS result was “ND (^ <4%)”, the SH entry was “ND (^ <4%)” and the UK result is given as “ND (^ <4%)”.

Consider `CNC1(C)CCc2scc(F)c2C1` (centres unmarked) [Compound 182, 3-fluoro-N, 5-dimethyl-6,7-dihydro-4H-benzothiophen-5-amine hydrochloride], for which the minimal effective dose was 3 mg/kg, the AD result is given as “ND (^ <4%)”, the AG result is recorded as “ND (^ <4%)” and the AN entry is “ND (^ <4%)”. The AP result is “ND (^ <4%)”, the AX entry is reported as “ND (^ <4%)”, the CE entry is recorded as “ND (^ <4%)” and the HL result is on record as “ND (^ <4%)”. The MS entry is given as “ND (^ <4%)”, the PS entry was “+ (≥4%)”, the SH entry was “+ (≥4%)” and the UK result is recorded as “++ (≥24%)”.

For the compound `Cc1cc2c(s1)CCC(N)C2` (centres unmarked) [Compound 185, 2-methyl-4,5,6,7-tetrahydrobenzothiophen-5-amine hydrochloride], the AD entry was “ND (^ <4%)”, the AG result is “ND (^ <4%)”, the AN result is on record as “ND (^ <4%)” and the AP entry was “ND (^ <4%)”. The AX result was “ND (^ <4%)”, the CE entry was “ND (^ <4%)”, the HL entry is “ND (^ <4%)” and the MS entry is given as “ND (^ <4%)”. Also, the PS entry is listed as “ND (^ <4%)”, the SH result was “ND (^ <4%)” and the UK result was “++ (≥24%)”.

Regarding `NC1CCc2scc(C(F)(F)F)c2C1` (centres unmarked) [Compound 186, 3-(trifluoromethyl)-4,5,6,7-tetrahydrobenzothiophen-5-amine hydrochloride], the minimal effective dose is more than 3 mg/kg, the AD entry is on record as “ND (^ <4%)”, the AG result is reported as “ND (^ <4%)” and the AN entry is “ND (^ <4%)”. Besides, the AP entry was “ND (^ <4%)”, the AX entry was “ND (^ <4%)”, the CE result is given as “ND (^ <4%)” and the HL result was “ND (^ <4%)”. The MS entry is given as “ND (^ <4%)”, the PS entry is “ND (^ <4%)”, the SH entry was “ND (^ <4%)” and the UK result is “+ (≥4%)”.

Consider `NC1CCc2scc(Cl)c2C1` (centres unmarked) [Compound 187, 3-chloro-4,5,6,7-tetrahydrobenzothiophen-5-amine hydrochloride], for which the minimal effective dose came out at 3 mg/kg, the AD entry is given as “ND (^ <4%)”, the AG entry is “ND (^ <4%)” and the AN result is “ND (^ <4%)”. Also, the AP entry is reported as “++ (≥24%)”, the AX entry is on record as “ND (^ <4%)”, the CE entry was “ND (^ <4%)” and the HL result is “ND (^ <4%)”. In addition, the MS entry is given as “ND (^ <4%)”, the PS result was “ND (^ <4%)”, the SH entry is on record as “ND (^ <4%)” and the UK result is “++ (≥24%)”.

As to `Cc1cc2c(s1)CC(N)CO2` (centres unmarked) [Compound 188, 2-methyl-6,7-dihydro-5H-thieno[3,2-b]pyran-6-amine hydrochloride], the minimal effective dose is more than 3 mg/kg, the AD entry is listed as “ND (^ <4%)”, the AG result was “ND (^ <4%)” and the AN entry is reported as “ND (^ <4%)”. Moreover, the AP entry was “ND (^ <4%)”, the AX result is “+ (≥4%)”, the CE result is on record as “ND (^ <4%)” and the HL entry is “ND (^ <4%)”. The MS result was “ND (^ <4%)”, the PS entry was “ND (^ <4%)”, the SH entry is “ND (^ <4%)” and the UK result is given as “++ (≥24%)”.

On to `CN(C)C1CCc2sc(Cl)cc2C1` (centres unmarked) [Compound 189, 2-chloro-N, N-dimethyl-4,5,6,7-tetrahydrobenzothiophen-5-amine hydrochloride], for which the minimal effective dose is more than 3 mg/kg, the AD entry is given as “ND (^ <4%)”, the AG entry is on record as “ND (^ <4%)” and the AN entry was “ND (^ <4%)”. In addition, the AP entry is reported as “ND (^ <4%)”, the AX result is listed as “ND (^ <4%)”, the CE entry was “ND (^ <4%)” and the HL entry is listed as “ND (^ <4%)”. Further, the MS result is on record as “ND (^ <4%)”, the PS result is “ND (^ <4%)”, the SH result is listed as “ND (^ <4%)” and the UK entry is given as “++ (≥24%)”.

As for `CNC1(C)CCc2scc(C(F)(F)F)c2C1` (centres unmarked) [Compound 190, N, 5-dimethyl-3-(trifluoromethyl)-6,7-dihydro-4H-benzothiophen-5-amine hydrochloride], the minimal effective dose is more than 3 mg/kg, the AD result is on record as “ND (^ <4%)”, the AG result is given as “ND (^ <4%)” and the AN entry is listed as “ND (^ <4%)”. Also, the AP entry was “ND (^ <4%)”, the AX result was “ND (^ <4%)”, the CE entry was “ND (^ <4%)” and the HL result is given as “ND (^ <4%)”. Further, the MS result is given as “ND (^ <4%)”, the PS result is on record as “ND (^ <4%)”, the SH entry is on record as “ND (^ <4%)” and the UK result was “+ (≥4%)”.

Turning to `NC1CCc2csc(C3CC3)c2C1` (centres unmarked) [Compound 193, 3-cyclopropyl-4,5,6,7-tetrahydro-2-benzothiophen-5-amine hydrochloride], the minimal effective dose is more than 3 mg/kg, the AD result was “ND (^ <4%)”, the AG entry is “ND (^ <4%)” and the AN entry is “+ (≥4%)”. Besides, the AP entry is listed as “ND (^ <4%)”, the AX entry is on record as “ND (^ <4%)”, the CE entry is recorded as “ND (^ <4%)” and the HL result is reported as “ND (^ <4%)”. The MS entry is “ND (^ <4%)”, the PS result is on record as “ND (^ <4%)”, the SH entry was “ND (^ <4%)” and the UK result is listed as “ND (^ <4%)”.

In the case of `CNC1CCc2sc(C)c(F)c2C1` (centres unmarked) [Compound 196, 3-fluoro-N, 2-dimethyl-4,5,6,7-tetrahydrobenzothiophen-5-amine hydrochloride], the minimal effective dose came to 3 mg/kg, the AD entry is “ND (^ <4%)”, the AG entry is on record as “ND (^ <4%)” and the AN result is “ND (^ <4%)”. The AP result is “ND (^ <4%)”, the AX result is reported as “ND (^ <4%)”, the CE entry was “ND (^ <4%)” and the HL result was “ND (^ <4%)”. The MS result was “ND (^ <4%)”, the PS result is on record as “ND (^ <4%)”, the SH result was “ND (^ <4%)” and the UK result is listed as “+ (≥4%)”.

For `CNC1CCc2sc(C)cc2C1` (centres unmarked) [Compound 197, N, 2-dimethyl-4,5,6,7-tetrahydrobenzothiophen-5-amine hydrochloride], the minimal effective dose worked out at 3 mg/kg, the AD entry is given as “ND (^ <4%)”, the AG entry is reported as “ND (^ <4%)” and the AN entry was “ND (^ <4%)”. Also, the AP result was “ND (^ <4%)”, the AX entry is given as “ND (^ <4%)”, the CE entry is “ND (^ <4%)” and the HL entry is recorded as “ND (^ <4%)”. In addition, the MS result is “ND (^ <4%)”, the PS result was “ND (^ <4%)”, the SH entry is reported as “ND (^ <4%)” and the UK result is given as “+++ (≥49%)”.

`Cc1scc2c1CCC(C)(N)C2` (centres unmarked) [Compound 200, 1,5-dimethyl-6,7-dihydro-4H-2-benzothiophen-5-amine hydrochloride]: the minimal effective dose worked out at 3 mg/kg, the AD result is “ND (^ <4%)”, the AG result is “ND (^ <4%)” and the AN result is “++ (≥24%)”. Further, the AP result is given as “ND (^ <4%)”, the AX result is on record as “ND (^ <4%)”, the CE entry was “ND (^ <4%)” and the HL entry is recorded as “+ (≥4%)”. Also, the MS entry is recorded as “ND (^ <4%)”, the PS result is listed as “++ (≥24%)”, the SH result is “ND (^ <4%)” and the UK result was “ND (^ <4%)”.

Turning to `CNC1CCc2scc(C3CC3)c2C1` (centres unmarked) [Compound 201, 3-cyclopropyl-N-methyl-4,5,6,7-tetrahydrobenzothiophen-5-amine hydrochloride], the minimal effective dose amounted to 3 mg/kg, the AD result is “ND (^ <4%)”, the AG entry is listed as “ND (^ <4%)” and the AN result is “ND (^ <4%)”. Also, the AP result was “ND (^ <4%)”, the AX entry is listed as “+ (≥4%)”, the CE result is given as “ND (^ <4%)” and the HL result is on record as “ND (^ <4%)”. Further, the MS result was “ND (^ <4%)”, the PS result is given as “ND (^ <4%)”, the SH entry is “ND (^ <4%)” and the UK entry is “++ (≥24%)”.

As for `CNC1COc2c(sc(C)c2C)C1` (centres unmarked) [Compound 202, N, 2,3-trimethyl-6,7-dihydro-5H-thieno[3,2-b]pyran-6-amine hydrochloride], the minimal effective dose is 3 mg/kg, the AD entry is on record as “+ (≥4%)”, the AG result is on record as “ND (^ <4%)” and the AN result was “ND (^ <4%)”. The AP result is recorded as “++ (≥24%)”, the AX result was “++ (≥24%)”, the CE result was “ND (^ <4%)” and the HL result is “ND (^ <4%)”. Moreover, the MS entry was “ND (^ <4%)”, the PS result is listed as “ND (^ <4%)”, the SH entry is “ND (^ <4%)” and the UK entry is “ND (^ <4%)”.
